Test results as given in paper PMC7598997, “Synthesis and evaluation of anticancer activities of 2- or 4-substituted 3-(N-benzyltriazolylmethyl)-13α-oestrone derivatives” (Journal of Enzyme Inhibition and Medicinal Chemistry, 2020).
Where two headings read alike, the source gives them in different places.

How the values were obtained:
MCF-7 cells = assay: MTT antiproliferative assay, MCF-7; format: cell-based, human; conditions: for inhibition at 10 µM / inhibition at 30 µM: read-out: Inhibition (%) ± SEM; for IC50: read-out: calculated IC50
Method: (§1) The antiproliferative properties of the newly synthesised triazoles (11a,b–15a,b) were determined on a panel of human adherent cancer cell lines of gynaecological origin. MCF-7 and MDA-MB-231 were isolated from breast cancers differing in biochemical background, while A2780 cells were isolated from ovarian cancer. The cancer selectivity of compound 12a was tested on the non-cancerous mouse embryo fibroblast cell line NIH/3T3. All cell lines were purchased from European Collection of Cell Cultures (ECCAC, Salisbury, UK). Cells were cultivated in minimal essential medium supplemented with 10% foetal bovine serum, 1% non-essential amino acids and an antibiotic–antimycotic mixture. All media and supplements were obtained from Lonza Group Ltd., Basel, Switzerland. Near-confluent cancer cells were seeded onto a 96-well microplate (5000 cells/well) and, after overnight standing, 200 µL new medium, containing the tested compounds at 10 and 30 µM, was added. After incubation for 72 h at 37 °C in humidified air containing 5% CO2, the living cells were assayed by the addition of 20 µL of 5 mg/ml 3-(4,5-dimethylthiazol-2-yl)-2,5-diphenyltetrazolium bromide (MTT) solution. MTT was converted by intact mitochondrial reductase and precipitated as purple crystals during a 4-h contact period. The medium was next removed and the precipitated formazan crystals were dissolved in 100 µL of DMSO during a 60-min period of shaking at 37 ^оC.
(§2) Finally, the reduced MTT was assayed at 545 nm, using a microplate reader utilising wells with untreated cells serving as control. […] All in vitro experiments were carried out on two microplates with at least five parallel wells. Stock solutions of the tested substances (10 mM) were prepared in DMSO. […] Cisplatin (Ebewe Pharma GmbH, Unterach, Austria) was used as positive control.

MDA-MB-231 cells = assay: MTT antiproliferative assay, MDA-MB-231; format: cell-based, human; conditions: for inhibition at 10 µM / inhibition at 30 µM: read-out: Inhibition (%) ± SEM; for IC50: read-out: calculated IC50
Method: as §1, §2

A2780 cells = assay: MTT antiproliferative assay, A2780; format: cell-based, human; conditions: for inhibition at 10 µM / inhibition at 30 µM: read-out: Inhibition (%) ± SEM; for IC50: read-out: calculated IC50
Method: as §1, §2

tubulin = assay: cell-free in vitro tubulin polymerisation assay; format: biochemical; conditions: 10 µM paclitaxel, positive control, vs untreated control
Method: The effect of brominated triazole (12a) on tubulin polymerisation was tested with the HTS-Tubulin Polymerisation Assay Biochem Kit (Bio-Kasztel Ltd., Budapest, Hungary) according to the manufacturer’s recommendations. Briefly, 10 µl of a 0.125 or 0.25 mM solution of the test compound (12a) was placed on a prewarmed (37 °C), UV-transparent microplate. About 10 µl 10 µM paclitaxel and 10 µl General Tubulin Buffer were used as positive and negative control, respectively. 100 µl 3.0 mg/ml tubulin in 80 mM PIPES pH 6.9, 2 mM MgCl2, 0.5 mM EGTA, 1 mM GTP was added to each sample, and the microplate was immediately placed into a prewarmed (37 °C) UV-spectrophotometer (SpectoStarNano, BMG Labtech, Ortenberg, Germany) to start the recording reaction. A 60-min kinetic measurement protocol was applied to determine the absorbance of the reaction solution per minute at 340 nm. For the evaluation of the experimental data, the maximum reaction rate (Vmax: Δabsorbance/min) was calculated. Moving averages of absorbances determined at three consecutive timepoints were calculated and the highest difference between two succeeding moving averages was taken as the Vmax of the tested compound in the tubulin polymerisation reaction. Each sample was prepared in two parallels and the measurements were repeated twice. For statistical evaluation, Vmax data were analysed by the one-way ANOVA test with the Newmann–Keuls post-test by using Prism 4.01 software (GraphPad Software, San Diego, CA).

[1] = Homo sapiens, MCF7, MCF-7, 10 µM, 72 h, MTT
[2] = Homo sapiens, MCF7, MCF-7, 30 µM, 72 h, MTT
[3] = Homo sapiens, MDA-MB-231, 10 µM, 72 h, MTT
[4] = Homo sapiens, MDA-MB-231, 30 µM, 72 h, MTT
[5] = Homo sapiens, A2780, 10 µM, 72 h, MTT
[6] = Homo sapiens, A2780, 30 µM, 72 h, MTT

Compound	inhibition at 10 µM (MCF-7 cells; Homo sapiens, MCF7, 72 h) [%]	inhibition at 30 µM (MCF-7 cells; Homo sapiens, MCF7, 72 h) [%]	IC50 (MCF-7 cells; Homo sapiens, MCF7, 72 h) [µM]	inhibition at 10 µM (MDA-MB-231 cells; Homo sapiens, MDA-MB-231, 72 h) [%]	inhibition at 30 µM (MDA-MB-231 cells; Homo sapiens, MDA-MB-231, 72 h) [%]	IC50 (MDA-MB-231 cells; Homo sapiens, MDA-MB-231, 72 h) [µM]	melting point [°C]	inhibition at 10 µM (A2780 cells; Homo sapiens, A2780, 72 h) [%]	inhibition at 30 µM (A2780 cells; Homo sapiens, A2780, 72 h) [%]	IC50 (A2780 cells; Homo sapiens, A2780, 72 h) [µM]	other results
C[C@@]12CC[C@@H]3c4cc(Br)c(OCc5cn(Cc6ccccc6)nn5)cc4CC[C@H]3[C@@H]1CCC2=O [Compound 11a, 3-[{1-benzyl-1H-1,2,3-triazol-4-yl}methoxy]-2-bromo-13α-estra-1,3,5(10)-trien-17-one]											inhibition at 10 µM (MCF-7 cells; [1]): 29.1 ± 1.42%; inhibition at 30 µM (MCF-7 cells; [2]): 36.5 ± 1.22%; inhibition at 10 µM (MDA-MB-231 cells; [3]): 47.5 ± 1.21%; inhibition at 30 µM (MDA-MB-231 cells; [4]): 38.2 ± 2.78%; inhibition at 10 µM (A2780 cells; [5]): 44.87 ± 0.09%; inhibition at 30 µM (A2780 cells; [6]): 52 ± 0.8%; IC50 (A2780 cells; Homo sapiens, A2780, 72 h, MTT): 21.5 µM
CCOP(=O)(OCC)c1c(OCc2cn(Cc3ccccc3)nn2)ccc2c1CC[C@@H]1[C@@H]2CC[C@@]2(C)C(=O)CC[C@@H]12 [Compound 15a, (3-[{1-benzyl-1H-1,2,3-triazol-4-yl}methoxy]-13α-estra-1,3,5(10)-trien-17-on-4-yl)-diethylphosphonate]	42.4 ± 2.94	91 ± 1.49	11.4	25.7 ± 1.76	96.87 ± 0.28	13.2	43 to 45	79.9 ± 1.08	99.5 ± 0.03	5.91	
N.N.[Cl][Pt][Cl] [Cisplatin, reference compound]											Inhibition (%) ± SEM (MCF-7 cells; MCF-7, 10 µM, 72 h, MTT): 53.03 ± 2.29%; Inhibition (%) ± SEM (MCF-7 cells; MCF-7, 30 µM, 72 h, MTT): 86.90 ± 1.24%; IC50 (MCF-7 cells; MCF-7, 72 h, MTT): 5.78 µM; Inhibition (%) ± SEM (MDA-MB-231 cells; MDA-MB-231, 10 µM, 72 h, MTT): 67.51 ± 1.01%; Inhibition (%) ± SEM (MDA-MB-231 cells; MDA-MB-231, 30 µM, 72 h, MTT): 87.75 ± 1.10%; IC50 (MDA-MB-231 cells; MDA-MB-231, 72 h, MTT): 3.7 µM; Inhibition (%) ± SEM (A2780 cells; A2780, 10 µM, 72 h, MTT): 83.57 ± 1.21%; Inhibition (%) ± SEM (A2780 cells; A2780, 30 µM, 72 h, MTT): 95.02 ± 0.28%; IC50 (A2780 cells; A2780, 72 h, MTT): 1.3 µM
CCOP(=O)(OCC)c1c(OCc2cn(Cc3ccc(C(C)(C)C)cc3)nn2)ccc2c1CC[C@@H]1[C@@H]2CC[C@@]2(C)C(=O)CC[C@@H]12 [Compound 15b, (3-[{1–(4-tert-butylbenzyl)-1H-1,2,3-triazol-4-yl}methoxy]-13α-estra-1,3,5(10)-trien-17-on-4-yl)-diethylphosphonate]	30.1 ± 1.53	77.5 ± 1.56		< 20	34.8 ± 2.2		54 to 59	46.2 ± 1.27	92.05 ± 0.86	9.96	
CCOP(=O)(OCC)c1cc2c(cc1OCc1cn(Cc3ccccc3)nn1)CC[C@@H]1[C@@H]2CC[C@@]2(C)C(=O)CC[C@@H]12 [Compound 13a, (3-[{1-benzyl-1H-1,2,3-triazol-4-yl}methoxy]-13α-estra-1,3,5(10)-trien-17-on-2-yl)-diethylphosphonate]	< 20	43.5 ± 2.63		< 20	36 ± 3.17		75 to 80	29.5 ± 1.86	90.85 ± 0.4	13.5	
CC(C)(C)c1ccc(Cn2cc(COc3ccc4c(c3Br)CC[C@@H]3[C@@H]4CC[C@@]4(C)C(=O)CC[C@@H]34)nn2)cc1 [Compound 12b, 4-bromo-3-[{1–(4-tert-butylbenzyl)-1H-1,2,3-triazol-4-yl}methoxy]-13α-estra-1,3,5(10)-trien-17-one]											inhibition at 10 µM (MCF-7 cells; [1]): 23.5 ± 1.03%; inhibition at 30 µM (MCF-7 cells; [2]): 29.2 ± 2.94%; inhibition at 10 µM (MDA-MB-231 cells; [3]): < 20%; inhibition at 30 µM (MDA-MB-231 cells; [4]): < 20%; inhibition at 10 µM (A2780 cells; [5]): 46.9 ± 1.75%; inhibition at 30 µM (A2780 cells; [6]): 54.7 ± 0.7%; IC50 (A2780 cells; Homo sapiens, A2780, 72 h, MTT): 18.3 µM
CC(=O)O[C@H]1C(=O)[C@@]2(C)[C@H]([C@H](OC(=O)c3ccccc3)[C@]3(O)C[C@H](OC(=O)[C@H](O)[C@@H](NC(=O)c4ccccc4)c4ccccc4)C(C)=C1C3(C)C)[C@]1(OC(C)=O)CO[C@@H]1C[C@@H]2O [Paclitaxel, reference compound]											increase in Vmax (tubulin): threefold increase in Vmax
CCOP(=O)(OCC)c1cc2c(cc1OCc1cn(Cc3ccc(C(C)(C)C)cc3)nn1)CC[C@@H]1[C@@H]2CC[C@@]2(C)C(=O)CC[C@@H]12 [Compound 13b, (3-[{1–(4-tert-butylbenzyl)-1H-1,2,3-triazol-4-yl}methoxy]-13α-estra-1,3,5(10)-trien-17-on-2-yl)-diethylphosphonate]	74 ± 1.88	95.52 ± 0.23	6.59	57 ± 2.58	98.93 ± 0.2	9.51		95.61 ± 0.59	99.73 ± 0.21	2.95	
C[C@@]12CC[C@@H]3c4cc(P(=O)(c5ccccc5)c5ccccc5)c(OCc5cn(Cc6ccccc6)nn5)cc4CC[C@H]3[C@@H]1CCC2=O [Compound 14a, (3-[{1-benzyl-1H-1,2,3-triazol-4-yl}methoxy]-13α-estra-1,3,5(10)-trien-17-on-2-yl)diphenylphosphine oxide]	66.9 ± 1.46	92.5 ± 1.08	8.38	82 ± 2.49	98.52 ± 0.1	7.13	117 to 120	96 ± 1.28	98.06 ± 0.89	4.87	
CC(C)(C)c1ccc(Cn2cc(COc3cc4c(cc3Br)[C@H]3CC[C@@]5(C)C(=O)CC[C@H]5[C@@H]3CC4)nn2)cc1 [Compound 11b, 2-bromo-3-[{1–(4-tert-butylbenzyl)-1H-1,2,3-triazol-4-yl}methoxy]-13α-estra-1,3,5(10)-trien-17-one]											inhibition at 10 µM (MCF-7 cells; [1]): < 20%; inhibition at 30 µM (MCF-7 cells; [2]): < 20%; inhibition at 10 µM (MDA-MB-231 cells; [3]): 24.4 ± 2.2%; inhibition at 30 µM (MDA-MB-231 cells; [4]): 23.9 ± 1.07%; inhibition at 10 µM (A2780 cells; [5]): 30.2 ± 2.35%; inhibition at 30 µM (A2780 cells; [6]): 33.9 ± 2.7%
CC(C)(C)c1ccc(Cn2cc(COc3cc4c(cc3P(=O)(c3ccccc3)c3ccccc3)[C@H]3CC[C@@]5(C)C(=O)CC[C@H]5[C@@H]3CC4)nn2)cc1 [Compound 14b, (3-[{1–(4-tert-butylbenzyl)-1H-1,2,3-triazol-4-yl}methoxy]-13α-estra-1,3,5(10)-trien-17-on-2-yl)diphenylphosphine oxide]	77.87 ± 0.66	90.69 ± 0.18	7.16	46.6 ± 1.21	71.3 ± 1.23	13.6	205 to 208	85.52 ± 0.64	95.82 ± 0.12	5.07	
